Values after ≈ are worked out from the molar mass of the structure shown.
Legend:
[1] = tested on: vancomycin-susceptible enterococci; test: broth micro-dilution, mean geometric MIC; assay type: cell-based, Enterococcus faecium and Enterococcus faecalis; details: enterococci, 24-hour incubation
[2] = tested on: vancomycin-resistant enterococci; test: broth micro-dilution, mean geometric MIC; assay type: cell-based, Enterococcus faecium and Enterococcus faecalis; details: enterococci, 24-hour incubation
[3] = tested on: Staphylococcus aureus SA1199B; assay type: cell-based
Experimental: (§1) The MIC's were determined using a standard broth micro-dilution assay.

[4] = tested on: Staphylococcus aureus S13E; assay type: cell-based
Experimental: as §1

Entercoccus faecium 180 = test: broth micro-dilution MIC; assay type: cell-based; details: Entercoccus faecium 180
Experimental: (§2) The formula I compounds have in vitro and in vivo activity against Gram-positive pathogenic bacteria. The MIC's were determined using a standard broth micro-dilution assay.

[5] = tested on: Staphylococcus haemolyticus 105; test: broth micro-dilution MIC; assay type: cell-based
Experimental: as §2

[6] = tested on: Streptococcus pneumoniae P1; test: broth micro-dilution MIC; assay type: cell-based
Experimental: as §2

Entercoccus faecium 2041 = test: broth micro-dilution MIC; assay type: cell-based; details: Entercoccus faecium 2041
Experimental: as §2

[7] = tested on: Enterococcus gallinarum 245; test: broth micro-dilution MIC; assay type: cell-based; details: Enterococcus gallinarum 245
Experimental: as §2

[8] = tested on: Staphylococcus epidermidis 270; test: broth micro-dilution MIC; assay type: cell-based
Experimental: as §2

[9] = tested on: Staphylococcus haemolyticus 415; test: broth micro-dilution MIC; assay type: cell-based
Experimental: as §2

[10] = tested on: Staphylococcus aureus 447; test: broth micro-dilution MIC; assay type: cell-based
Experimental: as §1

Entercoccus faecium 276 = test: broth micro-dilution MIC; assay type: cell-based
Experimental: as §1

[11] = tested on: Staphylococcus aureus 446; test: broth micro-dilution MIC; assay type: cell-based
Experimental: as §1

[12] = tested on: Staphylococcus aureus SA1199A; test: broth micro-dilution MIC; assay type: cell-based
Experimental: as §1

[13] = tested on: Staphylococcus aureus X778; test: broth micro-dilution MIC; assay type: cell-based
Experimental: as §1

[14] = tested on: Staphylococcus aureus SA1199; test: broth micro-dilution MIC; assay type: cell-based
Experimental: as §1

[15] = tested on: Entercoccus faecium 180-1; test: broth micro-dilution MIC; assay type: cell-based
Experimental: as §1

[16] = tested on: Staphylococcus aureus X400; test: broth micro-dilution MIC; assay type: cell-based
Experimental: as §1

[17] = tested on: Staphylococcus aureus 491; test: broth micro-dilution MIC; assay type: cell-based
Experimental: as §1

[18] = tested on: Streptococcus pyogenes C203; test: broth micro-dilution MIC; assay type: cell-based
Experimental: as §1

[19] = tested on: Staphylococcus aureus 489; test: broth micro-dilution MIC; assay type: cell-based
Experimental: as §1

SMILES | mean geometric MIC, Vancomycin Sensitive Strains [1] [µg/mL] | mean geometric MIC, Vancomycin Resistant Strains [2] [µg/mL] | MIC [3] [µg/mL] | MIC [4] [µg/mL] | MIC (Entercoccus faecium 180) [µg/mL] | MIC [5] [µg/mL] | MIC [6] [µg/mL] | MIC (Entercoccus faecium 2041) [µg/mL] | MIC [7] [µg/mL] | MIC [8] [µg/mL] | MIC [9] [µg/mL] | MIC [10] [µg/mL] | MIC (Entercoccus faecium 276) [µg/mL] | MIC [11] [µg/mL] | MIC [12] [µg/mL] | MIC [13] [µg/mL] | MIC [14] [µg/mL] | MIC [15] [µg/mL] | MIC [16] [µg/mL] | MIC [17] [µg/mL] | also measured
CNC(CC(C)C)C(=O)NC1C(=O)NC(CC(N)=O)C(=O)NC2C(=O)NC3C(=O)NC(C(=O)NC(C(=O)O)c4cc(O)cc(O)c4-c4cc3ccc4O)C(OC3CC(C)(N)C(O)C(C)O3)c3ccc(c(Cl)c3)Oc3cc2cc(c3OC2OC(CO)C(O)C(O)C2OC2CC(C)(NCc3ccc(OC(=O)c4ccccc4)cc3)C(O)C(C)O2)Oc2ccc(cc2Cl)C1O (stereo not shown) [Compound 150] | 0.25 | 1.7 | 0.5 (≈ 0.277 µM) | 0.25 (≈ 0.139 µM) | 0.25 (≈ 0.139 µM) | 1 (≈ 0.555 µM) | ≤ 0.06 | ≤ 0.06 | 2 (≈ 1.11 µM) | 0.25 (≈ 0.139 µM) | 2 (≈ 1.11 µM) | 0.5 (≈ 0.277 µM) | 1 (≈ 0.555 µM) | 1 (≈ 0.555 µM) | ≤ 0.06 | 2 (≈ 1.11 µM) | 1 (≈ 0.555 µM) | ≤ 0.06 | ≤ 0.06 | ≤ 0.06 | MIC [18]: ≤ 0.06 µg/mL; MIC [19]: 0.5 µg/mL (≈ 0.277 µM)
CNC(CC(C)C)C(=O)NC1C(=O)NC(CC(N)=O)C(=O)NC2C(=O)NC3C(=O)NC(C(=O)NC(C(=O)O)c4cc(O)cc(O)c4-c4cc3ccc4O)C(OC3CC(C)(N)C(O)C(C)O3)c3ccc(c(Cl)c3)Oc3cc2cc(c3OC2OC(CO)C(O)C(O)C2OC2CC(C)(NCc3cccc(OC4CCCCC4)c3)C(O)C(C)O2)Oc2ccc(cc2Cl)C1O (stereo not shown) [Compound 153] | 0.083 | 1.4 | 0.25 (≈ 0.14 µM) | 0.125 (≈ 0.0702 µM) | 0.125 (≈ 0.0702 µM) | 2 (≈ 1.12 µM) | ≤ 0.06 | ≤ 0.06 | 1 (≈ 0.562 µM) | 0.25 (≈ 0.14 µM) | 1 (≈ 0.562 µM) | 0.5 (≈ 0.281 µM) | 0.5 (≈ 0.281 µM) | 0.5 (≈ 0.281 µM) | ≤ 0.06 | 0.5 (≈ 0.281 µM) | 0.5 (≈ 0.281 µM) | ≤ 0.06 | 0.5 (≈ 0.281 µM) | 0.125 (≈ 0.0702 µM) | MIC [18]: ≤ 0.06 µg/mL; MIC [19]: 1 µg/mL (≈ 0.562 µM)
CNC(CC(C)C)C(=O)NC1C(=O)NC(CC(N)=O)C(=O)NC2C(=O)NC3C(=O)NC(C(=O)NC(C(=O)O)c4cc(O)cc(O)c4-c4cc3ccc4O)C(OC3CC(C)(N)C(O)C(C)O3)c3ccc(c(Cl)c3)Oc3cc2cc(c3OC2OC(CO)C(O)C(O)C2OC2CC(C)(NCC3CCC(C4CCCCC4)CC3)C(O)C(C)O2)Oc2ccc(cc2Cl)C1O (stereo not shown) [Compound 164] | 0.11 | 1.7 | 2 (≈ 1.13 µM) | 4 (≈ 2.26 µM) | 0.5 (≈ 0.282 µM) | 2 (≈ 1.13 µM) | ≤ 0.06 | 1 (≈ 0.565 µM) | 2 (≈ 1.13 µM) | 1 (≈ 0.565 µM) | 2 (≈ 1.13 µM) | 2 (≈ 1.13 µM) | 1 (≈ 0.565 µM) | 2 (≈ 1.13 µM) | 0.5 (≈ 0.282 µM) | 1 (≈ 0.565 µM) | 2 (≈ 1.13 µM) | ≤ 0.06 | 0.5 (≈ 0.282 µM) | 1 (≈ 0.565 µM) | MIC [18]: ≤ 0.06 µg/mL; MIC [19]: 2 µg/mL (≈ 1.13 µM)
CNC(CC(C)C)C(=O)NC1C(=O)NC(CC(N)=O)C(=O)NC2C(=O)NC3C(=O)NC(C(=O)NC(C(=O)O)c4cc(O)cc(O)c4-c4cc3ccc4O)C(OC3CC(C)(N)C(O)C(C)O3)c3ccc(c(Cl)c3)Oc3cc2cc(c3OC2OC(CO)C(O)C(O)C2OC2CC(C)(NCc3ccc(OS(=O)(=O)c4c(C)c(C)c(C)c(C)c4C)cc3)C(O)C(C)O2)Oc2ccc(cc2Cl)C1O (stereo not shown) [Compound 173] | 0.12 | 2.0 | 4 (≈ 2.1 µM) | 4 (≈ 2.1 µM) | 0.5 (≈ 0.262 µM) | 2 (≈ 1.05 µM) | ≤ 0.06 | 0.5 (≈ 0.262 µM) | 4 (≈ 2.1 µM) | 2 (≈ 1.05 µM) | 4 (≈ 2.1 µM) | 4 (≈ 2.1 µM) | 2 (≈ 1.05 µM) | 4 (≈ 2.1 µM) | 0.5 (≈ 0.262 µM) | 4 (≈ 2.1 µM) | 2 (≈ 1.05 µM) | 0.5 (≈ 0.262 µM) | 4 (≈ 2.1 µM) | 2 (≈ 1.05 µM) | MIC [18]: ≤ 0.06 µg/mL; MIC [19]: 2 µg/mL (≈ 1.05 µM)

Source: patent US5840684A, “Glycopeptide antibiotic derivatives” (Eli Lilly and Company, priority 1995, dated 1998)
